Laboratory results published in patent publication US8772500B2, “TRPV3 modulators” (AbbVie Inc., priority 2011, dated 2014).

How the values were obtained:
[1] = biological target: T1, human TRPV3 (Homo sapiens, UniProt Q8NET8); assay: In vitro antagonism of recombinant human TRPV3 activation (FLIPR Tetra calcium assay, 2-APB as agonist); format: cell-based; conditions: HEK293 cells stably expressing human TRPV3; 2-APB 80 μM; range class; read-out: IC50 (reported range)
T1 construct: expressed in transfected cells
T1 sequence (Q8NET8 1-790): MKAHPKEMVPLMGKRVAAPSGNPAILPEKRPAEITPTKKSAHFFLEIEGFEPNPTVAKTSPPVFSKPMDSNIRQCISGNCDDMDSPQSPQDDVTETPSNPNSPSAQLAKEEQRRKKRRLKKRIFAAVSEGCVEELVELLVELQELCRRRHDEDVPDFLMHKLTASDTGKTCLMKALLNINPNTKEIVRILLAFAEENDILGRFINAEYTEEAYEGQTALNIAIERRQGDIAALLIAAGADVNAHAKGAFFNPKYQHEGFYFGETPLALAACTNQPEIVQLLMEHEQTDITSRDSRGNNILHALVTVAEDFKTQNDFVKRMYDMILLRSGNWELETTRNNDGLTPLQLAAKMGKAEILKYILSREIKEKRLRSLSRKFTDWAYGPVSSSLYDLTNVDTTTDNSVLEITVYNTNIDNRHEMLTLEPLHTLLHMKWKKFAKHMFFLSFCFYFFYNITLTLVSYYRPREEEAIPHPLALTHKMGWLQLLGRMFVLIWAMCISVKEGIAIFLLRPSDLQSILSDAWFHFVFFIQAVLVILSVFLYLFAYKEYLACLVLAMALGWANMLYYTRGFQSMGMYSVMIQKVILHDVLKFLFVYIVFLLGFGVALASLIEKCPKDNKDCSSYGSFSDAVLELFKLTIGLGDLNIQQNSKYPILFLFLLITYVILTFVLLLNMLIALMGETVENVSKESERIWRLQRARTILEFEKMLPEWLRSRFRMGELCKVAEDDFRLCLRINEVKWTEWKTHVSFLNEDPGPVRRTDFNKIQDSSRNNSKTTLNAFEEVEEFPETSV
Outline: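 Readout is FLIPR fluorescence, max minus min as percent of uninhibited 2-APB response, giving IC50 (usually mean of ≥2 runs). Stable human TRPV3 HEK293 cells, Calcium-4 dye-loaded, got test compound then, three minutes later, 80 μM 2-APB (EC80); run length 10 min.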

[2] = In vitro human microsomal stability assay; format: in vitro ADME; conditions: human, 0.5 h, 0.5 μM, pH 7.4
Outline: (§1)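 Metabolic stability is assessed by incubating test compound with liver microsomes at 37 °C in the presence of NADPH. Rat assays use Sprague-Dawley microsomes, while human assays use human microsomes.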

[3] = In vitro rat microsomal stability assay; format: in vitro ADME, rat (Sprague-Dawley); conditions: Sprague-Dawley, rat, 0.5 h, 0.5 μM, pH 7.4
Outline: as §1

| IC50 [1] | HUMAN MICROSOMAL STABILITY (% REMAINING AFTER 30 MINUTES) [2] | RAT MICROSOMAL STABILITY (% REMAINING AFTER 30 MINUTES) [3] | Compound |
| --- | --- | --- | --- |
| 501 to 1000 nM | 51% | 11% | O[C@H](c1ncccn1)C1(c2ccc(Cl)c(Cl)c2)CCC1 [Example 39, (S)-[1-(3,4-dichlorophenyl)cyclobutyl](pyrimidin-2-yl)methanol] |
| 5100 to 20000 nM | 68% | 5.6% | O[C@@H](c1ncccn1)C1(c2ccc(Cl)c(Cl)c2)CCC1 [Example 40, (R)-[1-(3,4-dichlorophenyl)cyclobutyl](pyrimidin-2-yl)methanol] |
| 1100 to 5000 nM | 0.03% | 0.02% | Cc1ccccc1C(C)C1(C(O)c2ccccn2)CCC1 (stereo not drawn) [Example 45, {1-[1-(2-methylphenyl)ethyl]cyclobutyl}(pyridin-2-yl)methanol] |
| 5100 to 20000 nM | 11% | 0.23% | CC(c1ccc(F)cc1)C1(C(O)c2ccccn2)CCC1 (stereo not drawn) [Example 46, {1-[1-(4-fluorophenyl)ethyl]cyclobutyl}(pyridin-2-yl)methanol] |
| 1100 to 5000 nM | 15% | 0.13% | CC(c1ccc(Cl)cc1)C1(C(O)c2ccccn2)CCC1 (stereo not drawn) [Example 49, {1-[1-(4-chlorophenyl)ethyl]cyclobutyl}(pyridin-2-yl)methanol] |
| 1100 to 5000 nM | 0.08% | 0.18% | CC(c1ccccc1Cl)C1(C(O)c2ccccn2)CCC1 (stereo not drawn) [Example 50, {1-[1-(2-chlorophenyl)ethyl]cyclobutyl}(pyridin-2-yl)methanol] |
| 1100 to 5000 nM | 1.7% | 0.05% | Cc1ccc(CC2(C(O)c3ccccn3)CCC2)cc1 (stereo not drawn) [Example 52, [1-(4-methylbenzyl)cyclobutyl](pyridin-2-yl)methanol] |
| 5100 to 20000 nM | 1.6% | 0.29% | OC(c1ccccn1)C1(C2CCc3ccccc32)CCC1 (stereo not drawn) [Example 55, [1-(2,3-dihydro-1H-inden-1-yl)cyclobutyl](pyridin-2-yl)methanol] |
| 1100 to 5000 nM | 0.42% | 1.1% | OC(c1ccccn1)C1(C2CCCc3ccccc32)CCC1 (stereo not drawn) [Example 56, pyridin-2-yl[1-(1,2,3,4-tetrahydronaphthalen-1-yl)cyclobutyl]methanol] |
| 5100 to 20000 nM | 16% | 10% | OC(c1ccccn1)C1(C2CCOc3ccccc32)CCC1 (stereo not drawn) [Example 57, [1-(3,4-dihydro-2H-chromen-4-yl)cyclobutyl](pyridin-2-yl)methanol] |
| 1100 to 5000 nM | 36% | 33% | OC(c1ccccn1)C1(C(c2ccccc2)C(F)(F)F)CCC1 (stereo not drawn) [Example 58, pyridin-2-yl[1-(2,2,2-trifluoro-1-phenylethyl)cyclobutyl]methanol] |
| 1100 to 5000 nM | 45% | 12% | OC(c1ccccn1)C1(c2ccc(Cl)c(Cl)c2)CCOCC1 (stereo not drawn) [Example 59, [4-(3,4-dichlorophenyl)tetrahydro-2H-pyran-4-yl](pyridin-2-yl)methanol] |
| 1100 to 5000 nM | 31% | 23% | OC(c1ccccn1)C1(c2cccc(OC(F)(F)F)c2)CCOCC1 (stereo not drawn) [Example 66, pyridin-2-yl{4-[3-(trifluoromethoxy)phenyl]tetrahydro-2H-pyran-4-yl}-methanol] |
| 1100 to 5000 nM | 58% | 47% | OC(c1ccccn1)C1(c2ccc(OC(F)(F)F)cc2)CCOCC1 (stereo not drawn) [Example 67, pyridin-2-yl{4-[4-(trifluoromethoxy)phenyl]tetrahydro-2H-pyran-4-yl}-methanol] |
| 50 to 500 nM | 6.8% | 0.45% | OC(CC1(c2cccc(C(F)(F)F)c2)CCC1)c1ccccn1 (stereo not drawn) [Example 74, 1-(pyridin-2-yl)-2-{1-[3-(trifluoromethyl)phenyl]cyclobutyl}ethanol] |
| 501 to 1000 nM | 44% | 0.74% | OC(CC1(c2ccc(C(F)(F)F)cc2)CCC1)c1ccccn1 (stereo not drawn) [Example 75, 1-(pyridin-2-yl)-2-{1-[4-(trifluoromethyl)phenyl]cyclobutyl}ethanol] |
| 501 to 1000 nM | 39% | 0.47% | OC(CC1(c2ccc(OC(F)(F)F)cc2)CCC1)c1ccccn1 (stereo not drawn) [Example 76, 1-(pyridin-2-yl)-2-{1-[4-(trifluoromethoxy)phenyl]cyclobutyl}ethanol] |
| 501 to 1000 nM | 11% | 0.94% | OC(CC1(c2cccc(OC(F)(F)F)c2)CCC1)c1ccccn1 (stereo not drawn) [Example 77, 1-(pyridin-2-yl)-2-{1-[3-(trifluoromethoxy)phenyl]cyclobutyl}ethanol] |
| 501 to 1000 nM | 35% | 16% | OC(c1ccccn1)C1(c2ccc(Cl)c(Cl)c2)CC(F)(F)C1 (stereo not drawn) [Example 82, [1-(3,4-dichlorophenyl)-3,3-difluorocyclobutyl](pyridin-2-yl)methanol] |
| 5100 to 20000 nM | 82% | 76% | OC(c1ccccn1)C1(c2ccc(C(F)(F)F)nc2)CCC1 (stereo not drawn) [Example 85, pyridin-2-yl{1-[6-(trifluoromethyl)pyridin-3-yl]cyclobutyl}methanol] |
| 50 to 500 nM | 38% | 7.0% | OC(c1ccccn1)C1(c2ccc(C(F)(F)F)cc2)CCCO1 (stereo not drawn) [Example 88, (anti)-pyridin-2-yl{2-[4-(trifluoromethyl)phenyl]tetrahydrofuran-2-yl}-methanol] |
| 1100 to 5000 nM | 70% | 4.3% | OC(c1ccccn1)C1(c2ccc(C(F)(F)F)cc2)CCCO1 (stereo not drawn) [Example 89, (syn)-pyridin-2-yl{2-[4-(trifluoromethyl)phenyl]tetrahydrofuran-2-yl}-methanol] |
| 50 to 500 nM | 35% | <0.01% | Cc1ccccc1C1(C(O)c2ccccn2)CCCO1 (stereo not drawn) [Example 90, [2-(2-methylphenyl)tetrahydrofuran-2-yl](pyridin-2-yl)methanol] |
| 50 to 500 nM | 46% | 1.0% | Cc1cccc(C2(C(O)c3ccccn3)CCCO2)c1 (stereo not drawn) [Example 91, [2-(3-methylphenyl)tetrahydrofuran-2-yl](pyridin-2-yl)methanol] |
| 50 to 500 nM | 2.7% | 0.23% | OC(c1ccccn1)C1(c2cccc(OC(F)(F)F)c2)CCCO1 (stereo not drawn) [Example 92, (anti)-pyridin-2-yl{2-[3-(trifluoromethoxy)phenyl]tetrahydrofuran-2-yl}-methanol] |
| 501 to 1000 nM | 12% | 0.33% | OC(c1ccccn1)C1(c2cccc(OC(F)(F)F)c2)CCCO1 (stereo not drawn) [Example 93, (syn)-pyridin-2-yl{2-[3-(trifluoromethoxy)phenyl]tetrahydrofuran-2-yl}-methanol] |
| 50 to 500 nM | 55% | 3.8% | OC(c1ccccn1)C1(c2ccc(OC(F)(F)F)cc2)CCCO1 (stereo not drawn) [Example 94, (anti)-pyridin-2-yl{2-[4-(trifluoromethoxy)phenyl]tetrahydrofuran-2-yl}-methanol] |
